Data on one molecule can be found in article PMC11846984 (Nature Communications, 2025).

The assay addresses T1, GPX4 (Mus musculus, UniProt O70325).
T1 sequence (O70325 28-197): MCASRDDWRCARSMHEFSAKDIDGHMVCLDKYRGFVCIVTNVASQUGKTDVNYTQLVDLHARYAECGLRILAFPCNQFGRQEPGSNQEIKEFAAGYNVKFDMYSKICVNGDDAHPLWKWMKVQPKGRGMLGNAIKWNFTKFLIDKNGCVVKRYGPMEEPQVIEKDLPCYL
The assay is described as follows: cellular thermal shift assay. It is filed as cell-based.

Molecules are shown by their SMILES.

For the molecule `COc1ccc(N(C(=O)CCl)C(C(=O)NCCc2ccccc2)c2cccs2)cc1Cl` (stereo not shown) [ML162], the “cellular thermal shift assay (CETSA)” value is “Both the GPX4-targeting ligand ML162 and ML-NR were found to enhance the thermal stability of the GPX4 protein”.
